From patent publication US6498126B1, “Herbicide combination with acylated aminophenylsulfonylureas” (Aventis CropScience GmbH, priority 1999, dated 2002)

Test system: Setaria lutescens
Assay: Herbicidal action (field trials), post-emergence treatment, visual scoring of damage
Format: in vivo
Description: The seeds or rhizome pieces of typical harmful plants were planted and grown under natural field conditions. After the harmful plants had emerged, they were treated, as a rule at the 2-to 8-leaf stage, with various dosages of the compositions according to the invention at a water application rate of 100 to 400 I/ha (converted).
After the treatment (approx. 4-6 weeks after application), the herbidical activity of the active ingredients or active ingredient mixtures was scored visually by comparing the treated plots with the untreated control plots. Damage and development of all aerial parts of the plants was recorded. Scoring was done on a percentage scale (100% action=all plants dead; 50% action=50% of the plants and green plant parts dead; 0% action=no discernible action=like control plot). The score figures of in each case 4 plots was averaged.
The results are shown in the tables which follow, the action when using active ingredients A and B independently being stated in brackets.

COc1cc(OC)nc(NC(=O)NS(=O)(=O)c2cc(NC=O)ccc2C(=O)N(C)C)n1 [A1.1, N-[N-(4,6-dimethoxypyrimidin-2-yl)-aminocarbonyl]-2-(dimethyl-aminocarbonyl)-5-(formylamino)benzenesulfonamide]
Herbicidal effect on Setaria lutescens Damage in % (Table 1, 35 gAS/ha, treatment at the 6-8 leaf stage, scoring 27 days after application): 30%
Herbicidal effect on Setaria lutescens Damage in % (Table 1, 70 gAS/ha, treatment at the 6-8 leaf stage, scoring 27 days after application): 97%
Herbicidal effect on Setaria lutescens Damage in % (Table 2, 35 gSA/ha, treatment at the 6-8 leaf stage, scoring 27 days after application): 30%
Herbicidal effect on Setaria lutescens Damage in % (Table 2, 70 gSA/ha, treatment at the 6-8 leaf stage, scoring 27 days after application): 97%
Herbicidal effect on Setaria lutescens Damage in % (Table 3, 35 gAS/ha, treatment at the 2-leaf stage, scoring 39 days after application): 65%
Herbicidal effect on Setaria lutescens Damage in % (Table 3, 70 gAS/ha, treatment at the 2-leaf stage, scoring 39 days after application): 87%
Herbicidal effect on Setaria lutescens Damage in % (Table 4, 35 gAS/ha, treatment at the 6-8 leaf stage, scoring 27 days after application): 65%
Herbicidal effect on Setaria lutescens Damage in % (Table 4, 70 gAS/ha, treatment at the 6-8 leaf stage, scoring 27 days after application): 85%

CS(=O)(=O)NC(=O)c1cc(Oc2ccc(C(F)(F)F)cc2Cl)ccc1[N+](=O)[O-] [Fumesafen (B2.9), 5-(2-chloro-α,α,α-trifluoro-p-tolyloxyl)N-methylsulfonyl-2-nitrobenzamide, reference compound]
Herbicidal effect on Setaria lutescens Damage in % (Table 3, 240 gAS/ha, treatment at the 2-leaf stage, scoring 39 days after application): 25%

COc1cc(OC)nc(Sc2cccc(Cl)c2C(=O)[O-])n1.[Na+] [Pyrithiobac (B2.7), sodium 2-chloro-6-(4,6-dimethoxypyrimidin-2-ylthio)benzoate, reference compound]
Herbicidal effect on Setaria lutescens Damage in % (Table 4, 105 gAS/ha, treatment at the 6-8 leaf stage, scoring 27 days after application): 25%

CCOc1nc(NC)nc(NC(=O)NS(=O)(=O)c2ccccc2C(=O)OC)n1 [ethametsulfuron (B2.6), methyl 2-{N-[N-(4-ethoxy-6-methylamino-1,3,5-triazin-2-yl)-aminocarbonyl]-aminosulfonyl}benzoate, reference compound]
Herbicidal effect on Setaria lutescens Damage in % (Table 1, 15 gAS/ha, treatment at the 6-8 leaf stage, scoring 27 days after application): 33%
